Each block holds one substance with its values, some of them ahead of it.
Columns and labels:
Assay type in all cases: cell-based
human ASIC1a (hASIC1a) [1] = biological target: T1, human ASIC1a (hASIC1a) (Homo sapiens, UniProt P78348); test: whole-cell patch clamp, pH […] to […] evoked current, dose-response
T1 construct: gene ASIC1; native hASIC1a endogenously expressed in HEK 293 cells
T1 sequence (P78348 1-528): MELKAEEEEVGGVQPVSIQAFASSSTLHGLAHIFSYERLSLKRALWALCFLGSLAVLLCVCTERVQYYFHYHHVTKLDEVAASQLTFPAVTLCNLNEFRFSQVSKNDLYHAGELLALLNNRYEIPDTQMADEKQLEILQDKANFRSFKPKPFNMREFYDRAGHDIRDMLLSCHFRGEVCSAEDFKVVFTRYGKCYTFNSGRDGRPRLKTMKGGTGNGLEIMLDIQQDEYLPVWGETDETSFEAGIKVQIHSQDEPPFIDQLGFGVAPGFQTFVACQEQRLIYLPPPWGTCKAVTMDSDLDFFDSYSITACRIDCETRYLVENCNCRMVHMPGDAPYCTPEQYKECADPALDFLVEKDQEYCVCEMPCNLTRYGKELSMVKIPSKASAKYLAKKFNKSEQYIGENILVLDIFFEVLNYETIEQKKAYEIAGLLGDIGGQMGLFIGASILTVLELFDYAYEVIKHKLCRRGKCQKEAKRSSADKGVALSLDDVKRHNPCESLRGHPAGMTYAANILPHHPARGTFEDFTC

human ASIC1a (hASIC1a) [2] = biological target: T1, human ASIC1a (hASIC1a); test: whole-cell patch clamp, residual current I/Io at […] (weak); details: 100 µM
human ASIC1a (hASIC1a) [3] = biological target: T1, human ASIC1a (hASIC1a); test: whole-cell patch clamp, residual current I/Io at […]; details: 100 µM
human ASIC1a (hASIC1a) [4] = biological target: T1, human ASIC1a (hASIC1a); test: whole-cell patch clamp, residual current I/Io at […] (recovery […]); details: 100 µM

Substance: EN300-268551
IC50 (human ASIC1a (hASIC1a) [1]): 25 ± 2 µM

Substance: EN300-2324118
I/Io (Mean ± SD), % (human ASIC1a (hASIC1a) [2]): 65 ± 3 % I/Io at 100 µM

Substance: EN300-262584
I/Io (Mean ± SD), % (human ASIC1a (hASIC1a) [3]): 19 ± 8 % I/Io at 100 µM

Substance: EN300-256317
I/Io (Mean ± SD), % (human ASIC1a (hASIC1a) [4]): 7 ± 2 % I/Io at 100 µM

More lines, now with the values ahead:

IC50 (human ASIC1a (hASIC1a) [1]): 6 ± 0.6 µM
Substance: EN300-264105

I/Io (Mean ± SD), % (human ASIC1a (hASIC1a) [3]): 37 ± 8 % I/Io at 100 µM
Substance: EN300-257412

IC50 (human ASIC1a (hASIC1a) [1]): 3.5 ± 0.5 µM
Substance: EN300-257539

I/Io (Mean ± SD), % (human ASIC1a (hASIC1a) [2]): 76 ± 7 % I/Io at 100 µM
Substance: EN300-256318

Reference: publication PMC11011685, “4-(Azolyl)-Benzamidines as a Novel Chemotype for ASIC1a Inhibitors” (International Journal of Molecular Sciences, 2024)
